Reference: patent US8628771B2, “CA IX-specific inhibitors” (Institute of Virology Slovak Academy of Sciences, priority 2002, dated 2014)
Several values for one entry are separate records, joined by “and”; a condition that tells them apart may be missing. Equal values may be shown once. Where a name gives a salt, the structure may show the parent alone. Read-outs that look alike come from different tables or passages of the source.

Columns and labels:
MDCK-CA IX cells [1] = assay: Extracellular pH (pHe) of sulfonamide-treated MDCK-CA IX cells; assay type: cell-based, canine; conditions: 48 hours; for effect on extracellular acidification: hypoxia (2% O2); for effect on the normoxic pHe: normoxia
Protocol: (§1) To maintain the standard conditions, the cells were always plated in 3 ml of culture medium at a density of 0.8-1×10^6 per 6 cm dish 24 hours before the transfer to hypoxia (2% O2 and 5% CO2 balanced with N2) generated in a Napco 7000 incubator. Parallel normoxic dishes were incubated in air with 5% CO2.
(§2) Compound 6 sulfonamide [4-(2-aminoethyl)-benzenesulfonamide] was from Sigma-Aldrich. […] The sulfonamides were dissolved in PBS with 20% DMSO at 100 mM concentration and diluted in a culture medium to a required final concentration just before their addition to cells. The cells were incubated for 48 hours in hypoxia and normoxia, respectively, the pH of the culture medium was measured and the binding of the FITC-labeled Compound 92 to living cells, washed three times with PBS, was viewed by a Nikon E400 epifluorescence microscope.

MDCK-CA IX cells [2] = assay: Binding of FITC-labeled sulfonamide to MDCK-CA IX cells (fluorescence microscopy); assay type: cell-based, canine; conditions: 48 hours
Protocol: as §1, §2

HeLa cells [3] = assay: Extracellular pH (pHe) of sulfonamide-treated HeLa cells; assay type: cell-based, human; conditions: hypoxic HeLa cells, 1 mM, 48 hours
Protocol: as §1, §2

SiHa cells [4] = assay: Extracellular pH (pHe) of sulfonamide-treated SiHa cells; assay type: cell-based, human; conditions: hypoxic SiHa cells, 1 mM, 48 hours
Protocol: as §1, §2

HeLa cells [5] = assay: Binding of FITC-labeled sulfonamide to HeLa cells (fluorescence microscopy); assay type: cell-based, human; conditions: hypoxia versus normoxia, 48 hour incubation
SiHa cells [6] = assay: Binding of FITC-labeled sulfonamide to SiHa cells (fluorescence microscopy); assay type: cell-based, human; conditions: hypoxia versus normoxia, 48 hour incubation
human red cells [7] = conditions: pH 7.4
[8] = from reference [58]; cited from earlier work
human red cells [9] = assay: Membrane permeance assay: ex vivo penetration through red blood cells; conditions: pH 7.4; for [sulfonamide] in red blood cells, HPLC: HPLC method; for [sulfonamide] in red blood cells, ES: electronic spectroscopic method; for [sulfonamide] in red blood cells, EI: enzymatic method
hCA I = biological target: T1, hCA I (Homo sapiens, UniProt P00915); assay: CA esterase activity assay, isozyme hCA I; assay type: biochemical; conditions: Table 2; human (cloned) isozymes; read-out: KI hCA I
T1 construct: made in house; host or cells: Escherichia coli BL21 (DE3)

hCA II = biological target: T2, hCA II (Homo sapiens, UniProt P00918); assay: CA esterase activity assay, isozyme hCA II; assay type: biochemical; conditions: Table 2; human (cloned) isozymes; read-out: KI hCA II
T2 construct: made in house; host or cells: Escherichia coli BL21 (DE3)

bCA IV = biological target: T3, bCA IV (Bos taurus, UniProt Q95323); assay: CA esterase activity assay, isozyme bCA IV; assay type: biochemical, bovine
T3 construct: CA IV was isolated from bovine lung microsomes as described by Maren et al; from tissue; host or cells: bovine lung microsomes
T3 sequence (Q95323 19-284): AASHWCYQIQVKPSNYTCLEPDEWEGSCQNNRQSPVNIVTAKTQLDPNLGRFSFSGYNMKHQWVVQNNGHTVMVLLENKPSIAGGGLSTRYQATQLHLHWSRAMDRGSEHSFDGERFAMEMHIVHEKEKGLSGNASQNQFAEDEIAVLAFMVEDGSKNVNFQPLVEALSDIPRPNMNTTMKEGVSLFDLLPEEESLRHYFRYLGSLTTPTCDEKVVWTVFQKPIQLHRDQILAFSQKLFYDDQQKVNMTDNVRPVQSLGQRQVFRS

hCA IX = hCA IX (Homo sapiens, UniProt Q16790); assay: CA CO2 hydrase activity assay, tumor-associated isozyme hCA IX
Protocol: An SX.18MV-R Applied Photophysics stopped-flow instrument has been used for assaying the CA CO2 hydration activity assays [44]. […] Inhibitor and enzyme solutions were preincubated together for 10 min at room temperature prior to assay, in order to allow for the formation of the E-I complex.

T1 sequence (P00915 whole entry): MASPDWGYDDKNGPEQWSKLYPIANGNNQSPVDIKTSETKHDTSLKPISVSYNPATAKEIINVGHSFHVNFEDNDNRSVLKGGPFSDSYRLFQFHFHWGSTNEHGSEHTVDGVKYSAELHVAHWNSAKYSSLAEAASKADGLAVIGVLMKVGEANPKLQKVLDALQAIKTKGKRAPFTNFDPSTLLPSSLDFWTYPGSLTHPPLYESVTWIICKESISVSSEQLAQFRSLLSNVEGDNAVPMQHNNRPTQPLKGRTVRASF

In the case of `NS(=O)(=O)c1ccc(CNC(=S)Nc2ccc3c(c2)C(=O)OC32c3ccc(O)cc3Oc3cc(O)ccc32)cc1` [Compound 92], the “effect on extracellular acidification” value (MDCK-CA IX cells [1]) is reported as “able to reduce the extracellular acidification”, the “effect on the normoxic pHe” value (MDCK-CA IX cells [1]) is reported as “negligible” and the “detection of FITC-labeled compound in cells” value (MDCK-CA IX cells [2]; hypoxic MDCK-CA IX cells) is reported as “detected only in hypoxic MDCK-CA IX cells”. The “detection of FITC-labeled compound in cells” value (MDCK-CA IX cells [2]; normoxic MDCK-CA IX cells and mock-transfected controls) was “absent”, the “effect on acidosis (pHe)” value (HeLa cells [3]) was “partially reduced” and the “effect on acidosis (pHe)” value (SiHa cells [4]) was “partially reduced”. For the same compound, the “accumulation of FITC-labeled compound in cells” value (HeLa cells [5]) was “accumulated in the hypoxic HeLa and SiHa cells” and the “accumulation of FITC-labeled compound in cells” value (SiHa cells [6]) was “accumulated in the hypoxic HeLa and SiHa cells”.
For Benzolamide [reference compound], the “incubation period to saturation of hCA I and hCA II in erythrocytes with inhibitor” value (human red cells [7]) is given as 60 min and the “pKa for the second sulfonamido group” value [8] is given as 3.2.
For `CCCCc1cc(-c2ccccc2)cc(-c2ccccc2)[n+]1-c1ccc(S(=O)(=O)Nc2nnc(S(N)(=O)=O)s2)cc1` (as salt: perchlorate) [Compound 84, 1-N-[5-Sulfamoyl-1,3,4-thiadiazol-2-yl-(aminosulfonyl-4-phenyl)]-2-n-butyl-4,6-diphenylpyridinium perchlorate], the melting point was 241 to 243 °C.
For `NS(=O)(=O)c1nnc(NS(=O)(=O)c2ccc(-[n+]3c(-c4ccccc4)cc(-c4ccccc4)cc3-c3ccccc3)cc2)s1` (as salt: perchlorate) [Compound 87, 1-N-[5-Sulfamoyl-1,3,4-thiadiazol-2-yl-(aminosulfonyl-4-phenyl)]-2,4,6-triphenyl-pyridinium perchlorate], the melting point was > 300 °C.
For `CC(=O)/N=c1/sc(S(N)(=O)=O)nn1C` [MZA, methazolamide], the “[sulfonamide] in red blood cells, HPLC” value (human red cells [9]; t = 30 min, 2 mM sulfonamide in 5 mM Tris buffer) was 170 µM, the “[sulfonamide] in red blood cells, ES” value (human red cells [9]; t = 30 min, 2 mM sulfonamide) was 169 µM and the “[sulfonamide] in red blood cells, EI” value (human red cells [9]; t = 30 min, 2 mM sulfonamide) was 165 µM. The “[sulfonamide] in red blood cells, HPLC” value (human red cells [9]; t = 60 min, 2 mM sulfonamide) was 168 µM, the “[sulfonamide] in red blood cells, ES” value (human red cells [9]; t = 60 min, 2 mM sulfonamide) was 168 µM and the “[sulfonamide] in red blood cells, EI” value (human red cells [9]; t = 60 min, 2 mM sulfonamide) was 167 µM.
With `Cc1cc(C)[n+](-c2ccc(S(=O)(=O)Nc3nnc(S(N)(=O)=O)s3)cc2)c(C)c1C` (as salt: perchlorate) [Compound 89, 1-N-[5-Sulfamoyl-1,3,4-thiadiazol-2-yl-(aminosulfonyl-4-phenyl)]-2,3,4,6-tetramethylpyridinium perchlorate] the melting point was > 300 °C.
With `Cc1cc(C)[n+](Cc2ccc(S(N)(=O)=O)cc2)c(C)c1` [Compound 39] the Ki (hCA I) was 7 µM, the Ki (hCA II) was 0.05 µM and the Ki (bCA IV; Table 2, from bovine lung microsomes, read-out: KI bCA IV) was 0.092 µM. The “effect on extracellular acidification” value (MDCK-CA IX cells [1]) was “able to reduce the extracellular acidification”, the “effect on the normoxic pHe” value (MDCK-CA IX cells [1]) was “negligible” and the Ki (hCA IX; read-out: KI hCA IX, Table 2, catalytic domain of the human, cloned isozyme) was 0.038 µM.
In the case of `Nc1ccc(S(=O)(=O)Nc2nnc(S(N)(=O)=O)s2)cc1` [Compound 15, 5-(4-aminobenzenesulfonylamino)-1,3,4-thiadiazole-2-sulfonamide], the Ki (bCA IV) is reported as ~0.005 µM, the Ki (bCA IV; read-out: KI bCA IV) is reported as 0.005 µM and 0.0051 µM and the “incubation period to saturation of hCA I and hCA II in erythrocytes with inhibitor” value (human red cells [7]; human, 2 mM) is reported as 60 min. For the same compound, the “[sulfonamide] in red blood cells, EI” value (human red cells [7]; human, 30 min, 2 mM) was 122 µM, the “[sulfonamide] in red blood cells, ES” value (human red cells [7]; human, 30 min, 2 mM) was 127 µM and the “[sulfonamide] in red blood cells, HPLC” value (human red cells [7]; human, 30 min, 2 mM) was 125 µM. For the same compound, the “[sulfonamide] in red blood cells, EI” value (human red cells [7]; human, 60 min, 2 mM) was 158 µM, the “[sulfonamide] in red blood cells, ES” value (human red cells [7]; human, 60 min, 2 mM) was 156 µM and the “[sulfonamide] in red blood cells, HPLC” value (human red cells [7]; human, 60 min, 2 mM) was 154 µM. The “pKa for the second sulfonamido group” value [8] was 3.2, the Ki (hCA IX; KI against CA IX) was 0.014 to 0.05 µM and the Ki (hCA IX; read-out: KI against CA IX) was 0.038 µM. For the same compound, the Ki (hCA IX; read-out: KI hCA IX) was 0.038 µM.
Work on `CCCc1cc(-c2ccccc2)cc(CCC)[n+]1-c1ccc(S(=O)(=O)Nc2nnc(S(N)(=O)=O)s2)cc1` (as salt: perchlorate) [Compound 77, 1-N-[5-Sulfamoyl-1,3,4-thiadiazol-2-yl-(aminosulfonyl-4-phenyl)]-2,6-di-n-propyl-4-phenylpyridinium perchlorate] yielded a melting point of 235 to 237 °C.
`Cc1cc(-c2ccccc2)cc(-c2ccccc2)[n+]1-c1ccc(S(=O)(=O)Nc2nnc(S(N)(=O)=O)s2)cc1` (as salt: perchlorate) [Compound 80, 1-N-[5-Sulfamoyl-1,3,4-thiadiazol-2-yl-(aminosulfonyl-4-phenyl)]-2-methyl-4,6-diphenylpyridinium perchlorate] showed a melting point of 298 to 299 °C.
Compound `Cc1cc(C(C)C)[n+](-c2ccc(S(=O)(=O)Nc3nnc(S(N)(=O)=O)s3)cc2)c(C(C)C)c1` (as salt: perchlorate) [Compound 73, 1-N-[5-Sulfamoyl-1,3,4-thiadiazol-2-yl-(aminosulfonyl-4-phenyl)]-2,6-di-iso-propyl-4-methylpyridinium perchlorate] has a melting point of 278 to 279 °C.
In the case of `NCCc1ccc(S(N)(=O)=O)cc1` [Compound 6, 4-(2-aminoethyl)-benzenesulfonamide], the “effect on extracellular acidification” value (MDCK-CA IX cells [1]) is reported as “able to reduce the extracellular acidification” and the “effect on the normoxic pHe” value (MDCK-CA IX cells [1]) is reported as “negligible”.
